The results in this text go back to patent publication US7049295B2, “Compounds and use thereof to modify transport across cell membranes” (Biotransys Limited, priority 1999, dated 2006).

The subject of one experiment is Caco2 cells. The experiment is described as follows: Transcellular transport of HRP across monolayers of Caco2 cells. To be noted: Caco2 monolayer, following treatment with 5 μM BVS1 (absence of BVS1: ca 0.001). Type of experiment: cell-based. How it is done: Caco2 cells were cultured (passage 17–30) with standard methods and used at ca 21 days. Cells were plated at a density of ca. […] on Transwell® filters (2–4 μm, mean pore size).
The viability of cells for transport was assessed on the basis of the transcellular electrical resistance and values […] were assessed as viable.
Transcellular transport was determined as above for the HUVECs studies. In the absence of BVS1 transcellular transport was determined to be ca 0.001 nM min^−1.
(In general: Caco-2 monolayers are a common model of the intestinal barrier.)

In experiment [1] the test system is receptor located in human umbilical vein endothelial cells (HUVECS). Description: Interaction of designer peptides with FPE-labelled human cells possessing membrane receptor (fluorescence). Format: binding. The text has this: (§1) The following Examples illustrate the behaviour of various peptides and other molecules that promote transcellular transport of therapeutic molecules etc. These studies make use of techniques that show the interactions of molecules with receptors and cell membranes. […] The underlying theory and application of this technique is outlined in: • Wall, J., Ayoub, F. & O'Shea. P. (1995) J. Cell Sci. 108, 2673–2682 • Cladera, J. and O'Shea, P. (1998) Biophys. J. 74, 2434–2442 • Cladera, J., Martin, I., Ruysschaert, J. M. and O'Shea, P. (1999) J. Biol. Chem. 274, 29951–29959 the teaching of all of which is incorporated herein by reference.
Human umbilical endothelial cells were labelled with FPE and challenged with the indicated amounts of BVS1 peptides. […] Fluorescence was recorded at 518 nm after excitation at 490 nm.
Two separate experiments are shown and offset in the time dimension for clarity. Peptides were added as indicated by the arrows. The BVS1 peptide was added in both experiments. In the second trace, however, addition of BVS1 was preceded by the addition of 300 nM IL-8.

The test system of another experiment is HUVECs. The experiment is described as follows: Transcellular transport of horse radish peroxidase (HRP) across a cell monolayer on filter. Format: cell-based, human. How it is done: Transport of horse radish peroxidase (HRP) across a cellular membrane was measured using the apparatus shown schematically in FIG. 4, with the addition of biovectors (BVS1 etc). The apparatus comprises upper and lower compartments (1, 2 respectively) separated by a filter 3 on which the cells 4 are grown. HRP and biovectors are added to the medium in the upper compartment 1, and HRP is assayed in the lower compartment 2.
Transcellular transport was determined as above for the HUVECs studies. […]

Experiment [2] deals with receptor isolated from the HUVECS plasma membrane (albumin receptor protein). Description: Interaction with purified isolated receptor reconstituted into FPE-labelled artificial membranes. Type of experiment: binding, human.
From the text: as §1
At the arrows, 5 μM BVS1 was added. Two separate experiments are shown and offset in the time dimension for clarity.

[3] abbreviates: +5 μM biovector, over baseline 0.003 nM/min^−1.

The substance AVGIGALFLGFLGAAG [BVS1] came in with a transcellular transport in the experiment on Caco2 cells of 0.02 nM/min. Also, in experiment [1] (HUVECS labelled with FPE), the “binding to receptor (FPE fluorescence)” value is reported as “clearly binds to a receptor”. For the same substance, the “binding to receptor after prior addition of IL-8” value in experiment [1] (addition of BVS1 preceded by 300 nM IL-8) was “unable to bind”. Moreover, the Facilitated transport with HUVECs (+5 μM PSNU then +5 μM BVS1) is on record as 3/0; in the experiment with HUVECs (setting [3]), 15 X Fold. Also, the “binding to reconstituted isolated receptor (FPE fluorescence increase)” value in experiment [2] (5 μM BVS1) was “clearly binds to a receptor”. For the same substance, the “binding to reconstituted isolated receptor after prior addition of human serum albumin” value in experiment [2] (5 μM BVS1 preceded by 5 μM human serum albumin) was “unable to bind”.

Take “polysulfonylnaphthylurea [PSNU, reference compound]”: the Facilitated transport in the experiment with HUVECs (setting [3]) was determined as 3 X Fold. Further, the “interaction with reconstituted albumin receptor protein (FPE)” value in experiment [2] (2 μM PSNU) is “interactions take place”.

Take AGIGALFLGFLGAAG [BVS16]: the Facilitated transport in the experiment with HUVECs (setting [3]) came out at 9 X Fold.

Substance GVFVLGFLGFLATAGS [BVS9] had a Facilitated transport in the experiment on HUVECs (setting [3]) of 7 X Fold.

On to interleukin-8 [IL-8], for which the “binding of IL-8 to the receptor targeted by BVS1” value in experiment [1] (300 nM IL-8) was “appears to bind”.

GVFVLGLFGFLA [BVS5]: the Facilitated transport in the experiment with HUVECs (setting [3]) turned out to be 22 X Fold.
